Data on six compounds can be found in US20260174749A1, “COMBINATION THERAPY WITH SUBSTITUTED 3-((3-AMINOPHENYL)AMINO)PIPERIDINE-2,6- DIONE COMPOUNDS” (Bristol-Myers Squibb Company, priority 2022, published 2026).

Holding throughout (assay type): cell-based
Holding throughout (conditions): second agent in combination with Compound I, 7 days; for Synergy region (synergy score): Bliss/HSA excess

For one assay, the system named is VCaP cells. Put plainly: CTG proliferation assay, in-vitro combination screen, VCaP. Further details: key to Synergy excess / Additivity score: area between experimental and reference (Bliss/HSA) response surfaces. Here is the method:
(§1) Three prostate cancer cell lines LNCAP, VCAP, and 22RV1 were used in this screen. Briefly, LNCaP cells were cultured in RPMI medium supplemented with 10% FBS, 1% penicillin/streptomycin, 10 mM HEPES, 1 mM sodium pyruvate, and 1.5 g/L sodium bicarbonate. […] PC3 cells were cultured in F12K medium supplemented with 10% FBS and 1% penicillin/streptomycin. 22RV1 cells were cultured in RPMI1640 medium supplemented with 10% FBS and 1% penicillin/streptomycin. […] VCaP cells were cultured in DMEM medium supplemented with 10% FBS, 1% penicillin/streptomycin 1 mM sodium pyruvate, 1.5 g/L sodium bicarbonate on high bind treated tissue culture flasks (Corning CellBIND) to increase cell surface attachment. […] The combination plates seeded with cells were then incubated for 7 days at 37° C. and 5% CO2. Cell viability assays were then performed on the plates using Promega CellTiter-Glo (CTG) Luminescent Cell Viability Assay kit and following the manufacturer's protocol. 20 μL of CTG reagent was added to each well of the 384 well plate, and plates were then incubated for 45 minutes before measuring the […] using PerkinElmer EnVision Plate Reader.
(§2) Synergy is calculated by Bliss and HSA excess scores. Bliss and HSA excess scores are computed by subtracting the area under the experimental response surface to the areas under the corresponding reference model surface. A negative HSA excess score indicates antagonism, while a positive HSA excess indicates additivity and synergy is detected when also the Bliss excess score is positive. Replicates are integrated by fitting individual dose response curves. Statistical analysis is performed by first estimating experimental noise and goodness-of-fit values for each individual combination. These values are used to compute Z-scores for the observed effects. Z-scores are integrated across the combination matrix where the deviation from the model is consistent over adjacent doses and a p-value is computed.

For the next assay, the system named is LNCaP cells. The assay can be described thus: CTG proliferation assay, in-vitro combination screen, LNCaP. Further details: key to Synergy excess: experimental response-surface area minus reference-model area (Bliss/HSA); Maximum synergy: scale not given here. Here is the method:
Three prostate cancer cell lines LNCAP, VCAP, and 22RV1 were used in this screen. Briefly, LNCaP cells were cultured in RPMI medium supplemented with 10% FBS, 1% penicillin/streptomycin, 10 mM HEPES, 1 mM sodium pyruvate, and 1.5 g/L sodium bicarbonate. LNCaP cells were seeded at a density of 2000 cells/well on 384 black assay plates printed with our different compound combinations of interest printed on the plates. PC3 cells were cultured in F12K medium supplemented with 10% FBS and 1% penicillin/streptomycin. 22RV1 cells were cultured in RPMI1640 medium supplemented with 10% FBS and 1% penicillin/streptomycin. 22RV1 cells were seeded at a density of 2000 cells/well on 384 black assay plates printed with our different compound combinations of interest printed on the plates. VCaP cells were cultured in DMEM medium supplemented with 10% FBS, 1% penicillin/streptomycin 1 mM sodium pyruvate, 1.5 g/L sodium bicarbonate on high bind treated tissue culture flasks (Corning CellBIND) to increase cell surface attachment. VCaP cells were seeded at a density of 3000 cells/well on high-bind 384 black assay plates printed with our different compound combinations of interest printed on the plates. The combination plates seeded with cells were then incubated for 7 days at 37° C. and 5% CO2. Cell viability assays were then performed on the plates using Promega CellTiter-Glo (CTG) Luminescent Cell Viability Assay kit and following the manufacturer's protocol. 20 μL of CTG reagent was added to each well of the 384 well plate, and plates were then incubated for 45 minutes before measuring the […] using PerkinElmer EnVision Plate Reader.
as §2

The test system of the next assay is 22RV1 cells. Put plainly: CTG proliferation assay, in-vitro combination screen, 22RV1. Set-up: key to Synergy region (synergy score) / Additivity score / Antagonism score: area between experimental and reference (Bliss/HSA) response surfaces. Here is the method:
as §1, §2

`NC1(C(=O)N[C@@H](CCO)c2ccc(Cl)cc2)CCN(c2nc[nH]c3nccc2-3)CC1` [AZD5363, capivasertib]: in the assay with VCaP cells, the Additivity score is reported as 7.1, the Antagonism score worked out at 0, the Maximum synergy amounted to 13 and the Synergy excess is 6.2. The “Synergy region (synergy score)” value with VCaP cells amounted to 2. For the same compound, in the assay with LNCaP cells, the Additivity score is listed as 16, the Antagonism score came out at 0, the Maximum synergy stood at 26 and the Synergy excess was 9.4. Also, the “Synergy region (synergy score)” value in the assay with LNCaP cells amounted to 8.1.

As to `N#CC[C@H](C1CCCC1)n1cc(-c2ncnc3[nH]ccc23)cn1` [Ruxolitinib, ruxolitinib], in the assay with VCaP cells, the Additivity score turned out to be 5.2 and the Antagonism score amounted to 0.

Regarding `CCN(c1cc(-c2ccc(CN3CCOCC3)cc2)cc(C(=O)NCc2c(C)cc(C)[nH]c2=O)c1C)C1CCOCC1` [Tazemetostat, tazemetostat], in the assay with LNCaP cells, the Additivity score is reported as 6.1, the Antagonism score is 0, the Maximum synergy is recorded as 20 and the Synergy excess was 5.3. For the same compound, in the assay on LNCaP cells, the “Synergy region (synergy score)” value turned out to be 4.1.

With `CNC(=O)c1cc(Oc2ccc(NC(=O)Nc3ccc(Cl)c(C(F)(F)F)c3)cc2)ccn1` [Sorafenib, sorafenib], in the assay with 22RV1 cells, the Additivity score turned out to be 2.6, the Antagonism score was 0, the Maximum synergy came out at 20 and the “Synergy region (synergy score)” value was found to be 0.65.

Regarding `C[C@@H](Nc1cc(F)cc(F)c1)c1cc(C(=O)N(C)C)cc2c(=O)cc(N3CCOCC3)oc12` [AZD8186], in the assay with VCaP cells, the Additivity score is reported as 2.1, the Antagonism score is listed as 0, the Maximum synergy was found to be 11 and the Synergy excess is given as 2.9. The “Synergy region (synergy score)” value in the assay on VCaP cells is 0.39. In the assay with LNCaP cells, the Additivity score turned out to be 10, the Antagonism score is on record as 0, the Maximum synergy is 12 and the Synergy excess turned out to be 4.4. Moreover, the “Synergy region (synergy score)” value with LNCaP cells was 1.5. Further, in the assay with 22RV1 cells, the Additivity score turned out to be 7.6, the Antagonism score is reported as 0, the Maximum synergy is 24 and the Synergy excess is recorded as 2.4. In the assay on 22RV1 cells, the “Synergy region (synergy score)” value worked out at 1.6.

Consider `CC(C)NC[C@@H](C(=O)N1CCN(c2ncnc3c2[C@H](C)C[C@H]3O)CC1)c1ccc(Cl)cc1` [GDC-0068, ipatasertib], for which, in the assay on VCaP cells, the Additivity score turned out to be 7.5, the Antagonism score was 0, the Maximum synergy was 14 and the Synergy excess is 3.8. Also, the “Synergy region (synergy score)” value in the assay on VCaP cells came out at 1.5. In the assay on LNCaP cells, the Additivity score was 13, the Antagonism score is listed as 0, the Maximum synergy was 23 and the Synergy excess was determined as 7.6. The “Synergy region (synergy score)” value in the assay with LNCaP cells came out at 5.6. Besides, in the assay on 22RV1 cells, the Additivity score worked out at 7.5, the Antagonism score came to 0, the Maximum synergy turned out to be 23 and the Synergy excess is recorded as 2.4. The “Synergy region (synergy score)” value in the assay on 22RV1 cells was found to be 2.1.
